Experiment [1] relates to Staphylococcus aureus. Briefly: Antibacterial activity against quinolone-resistant Staphylococcus aureus CCARM 3519 at 64 ug/ml incubated for 24 hrs serial dilution method. The class given is functional, organism-based.
Experiment [2] concerns Staphylococcus aureus. Briefly: Antibacterial activity against quinolone-resistant Staphylococcus aureus CCARM 3505 at 64 ug/ml incubated for 24 hrs serial dilution method. In kind it is functional, organism-based.
The test system of experiment [3] is Staphylococcus aureus. Briefly: Antibacterial activity against multidrug-resistant Staphylococcus aureus CCARM 3506 at 64 ug/ml incubated for 24 hrs serial dilution method. In kind it is functional, organism-based.
In experiment [4] the test system is Staphylococcus aureus. Briefly: Antibacterial activity against multidrug-resistant Staphylococcus aureus CCARM 3167 at 64 ug/ml incubated for 24 hrs serial dilution method. The class given is functional, organism-based.
Experiment [5] relates to Escherichia coli. Briefly: Antibacterial activity against Escherichia coli 1356 at 64 ug/ml incubated for 24 hrs serial dilution method. The class given is functional, organism-based.
The subject of experiment [6] is Staphylococcus aureus. Briefly: Antibacterial activity against Staphylococcus aureus KCTC 503 at 64 ug/ml incubated for 24 hrs serial dilution method. In kind it is functional, organism-based.
In experiment [7] the test system is Staphylococcus aureus. Briefly: Antibacterial activity against Staphylococcus aureus KCTC 209 at 64 ug/ml incubated for 24 hrs serial dilution method. The class given is functional, organism-based.
Experiment [8] relates to Staphylococcus aureus. Briefly: Antibacterial activity against Staphylococcus aureus RN 4220 at 64 ug/ml incubated for 24 hrs serial dilution method. In kind it is functional, organism-based.
Experiment [9] deals with Staphylococcus aureus. The experiment can be described thus: Potency index, ratio of MIC for norfloxacin to MIC for compound against quinolone-resistant Staphylococcus aureus CCARM 3519 incubated for 24 hrs serial dilution method. In kind it is functional.
For experiment [10], the system named is Staphylococcus aureus. Briefly: Potency index, ratio of MIC for norfloxacin to MIC for compound against quinolone-resistant Staphylococcus aureus CCARM 3505 incubated for 24 hrs serial dilution method. In kind it is functional.
Experiment [11] relates to Staphylococcus aureus. Briefly: Potency index, ratio of MIC for norfloxacin to MIC for compound against multidrug-resistant Staphylococcus aureus CCARM 3506 incubated for 24 hrs serial dilution method. In kind it is functional.
The subject of experiment [12] is Staphylococcus aureus. Briefly: Potency index, ratio of MIC for norfloxacin to MIC for compound against multidrug-resistant Staphylococcus aureus CCARM 3167 incubated for 24 hrs serial dilution method. The class given is functional.
In experiment [13] the test system is Staphylococcus aureus. The experiment can be described thus: Antibacterial activity against quinolone-resistant Staphylococcus aureus CCARM 3519 incubated for 24 hrs serial dilution method. The class given is functional. To be noted: CCARM 3519, 24 h.
In experiment [14] the test system is Staphylococcus aureus. Briefly: Antibacterial activity against quinolone-resistant Staphylococcus aureus CCARM 3505 incubated for 24 hrs serial dilution method. The class given is functional. To be noted: CCARM 3505, 24 h.
In experiment [15] the test system is Staphylococcus aureus. The experiment can be described thus: Antibacterial activity against multidrug-resistant Staphylococcus aureus CCARM 3506 incubated for 24 hrs serial dilution method. The class given is functional. To be noted: CCARM 3506, 24 h.
In experiment [16] the test system is Staphylococcus aureus. Briefly: Antibacterial activity against multidrug-resistant Staphylococcus aureus CCARM 3167 incubated for 24 hrs serial dilution method. The conditions noted are these: CCARM 3167, 24 h. In kind it is functional.
Experiment [17] relates to Escherichia coli. Briefly: Antibacterial activity against Escherichia coli 1356 incubated for 24 hrs serial dilution method. In kind it is functional. To be noted: Escherichia coli, 1356, 24 h.
The subject of experiment [18] is Staphylococcus aureus. Briefly: Antibacterial activity against Staphylococcus aureus KCTC 503 incubated for 24 hrs serial dilution method. In kind it is functional. The conditions noted are these: KCTC 503, 24 h.
Experiment [19] deals with Staphylococcus aureus. Briefly: Antibacterial activity against Staphylococcus aureus KCTC 209 incubated for 24 hrs serial dilution method. In kind it is functional. The conditions noted are these: KCTC 209, 24 h.
Experiment [20] concerns Staphylococcus aureus. Briefly: Antibacterial activity against Staphylococcus aureus RN 4220 incubated for 24 hrs serial dilution method. The conditions noted are these: RN 4220, 24 h. In kind it is functional.

Converted amounts (≈) assume the structure as drawn. The source made the active and inactive calls. No cut-off for these calls is given here. Bounds are passed on as bounds.

Consider `COc1ccc(Oc2c(C=O)c(C)nn2-c2ccccc2)cc1`, for which the result in experiment [1], in [2], in experiment [3], in [4], in [5] and in [6] was inactive. The outcome in experiment [7] and in [8] was inactive.
Take `Cc1nn(-c2ccccc2)c(Oc2ccc3ccccc3c2)c1C=O`: the result in experiment [1], in experiment [2], in experiment [3], in [4], in experiment [5] and in experiment [6] was inactive. Also, the outcome in [7] and in experiment [8] was inactive.
`COc1ccccc1Oc1c(C=O)c(C)nn1-c1ccccc1`: the outcome in [1], in [2], in experiment [3], in experiment [4], in experiment [5] and in experiment [6] was inactive. Further, the outcome in experiment [7] and in experiment [8] was inactive.
Consider `Cc1nn(-c2ccccc2)c(Oc2ccc(Cl)cc2Cl)c1C=O`, for which the outcome in experiment [1], in experiment [2], in experiment [3], in [4], in [5] and in experiment [6] was inactive. Moreover, the result in [7] and in experiment [8] was inactive.
Consider `Cc1cccc(Oc2c(C=O)c(C)nn2-c2ccccc2)c1`, for which the outcome in [1], in experiment [2], in experiment [3], in experiment [4], in experiment [5] and in experiment [6] was inactive. Moreover, the outcome in experiment [7] and in experiment [8] was inactive.
Turning to `COc1ccc(Oc2c(/C=C3\SC(=S)N([C@@H](Cc4ccccc4)C(=O)O)C3=O)c(C)nn2-c2ccccc2)cc1`, the Ratio in [9] came out at 4; in experiment [10] it was 4; in experiment [11], 2; in [12], 2. The MIC in experiment [13] is 8 µg/mL (≈ 14 µM); in [14], 8 µg/mL (≈ 14 µM); in experiment [15], 4 µg/mL (≈ 7 µM); in [16], 4 µg/mL (≈ 7 µM); in experiment [17] it was > 64 µg/mL; in [18] it was > 64 µg/mL. Also, the MIC in experiment [19] is > 64 µg/mL; in experiment [20], 8 µg/mL (≈ 14 µM).
Regarding `COc1ccccc1Oc1c(/C=C2\SC(=S)N([C@@H](Cc3ccccc3)C(=O)O)C2=O)c(C)nn1-c1ccccc1`, the Ratio in experiment [9] is 4; in experiment [10] it was 4; in experiment [11], 2; in [12], 2. The minimum inhibitory concentration (MIC) in [13] was 8 µg/mL (≈ 14 µM); in experiment [14] it was 8 µg/mL (≈ 14 µM); in experiment [15] it was 8 µg/mL (≈ 14 µM); in experiment [16], 8 µg/mL (≈ 14 µM); in [17] it was > 64 µg/mL; in experiment [18] it was > 64 µg/mL. For the same compound, the figures for the minimal inhibitory concentration (MIC) in experiment [19] and in [20] were > 64 µg/mL and 16 µg/mL (≈ 28 µM), respectively.
`Cc1nn(-c2ccccc2)c(Oc2ccc3ccccc3c2)c1/C=C1\SC(=S)N([C@@H](Cc2ccccc2)C(=O)O)C1=O`: the Ratio in experiment [9] is 4; in experiment [10] it was 4; in [11], 2; in [12], 2. In addition, the MIC in experiment [13] was 2 µg/mL (≈ 3.38 µM); in experiment [14], 2 µg/mL (≈ 3.38 µM); in experiment [15], 2 µg/mL (≈ 3.38 µM); in [16], 2 µg/mL (≈ 3.38 µM); in experiment [17], > 64 µg/mL; in [18], > 64 µg/mL. For the same compound, the minimal inhibitory concentration (MIC) in [19] is > 64 µg/mL; in experiment [20] it was 2 µg/mL (≈ 3.38 µM).
As to `Cc1ccc(Oc2c(/C=C3\SC(=S)N([C@@H](Cc4ccccc4)C(=O)O)C3=O)c(C)nn2-c2ccccc2)c(C)c1`, the Ratio in experiment [9] is 4; in [10], 4; in experiment [11], 2; in experiment [12] it was 2. Further, the minimum inhibitory concentration (MIC) is 2 µg/mL (≈ 3.51 µM) in [13]; 2 µg/mL (≈ 3.51 µM) in experiment [14]; 2 µg/mL (≈ 3.51 µM) in experiment [15]; 2 µg/mL (≈ 3.51 µM) in experiment [16]; > 64 µg/mL in experiment [17]; > 64 µg/mL in experiment [18]. The values for the MIC in experiment [19] and in experiment [20] were > 64 µg/mL and 2 µg/mL (≈ 3.51 µM), respectively.
In the case of `Cc1nn(-c2ccccc2)c(Oc2cccc(Cl)c2)c1/C=C1\SC(=S)N([C@@H](Cc2ccccc2)C(=O)O)C1=O`, the Ratio was 4 in [9], 4 in [10], 2 in [11] and 2 in experiment [12]. Besides, the minimum inhibitory concentration (MIC) is 8 µg/mL (≈ 13.9 µM) in experiment [13]; 4 µg/mL (≈ 6.94 µM) in experiment [14]; 4 µg/mL (≈ 6.94 µM) in [15]; 4 µg/mL (≈ 6.94 µM) in experiment [16]; > 64 µg/mL in [17]; > 64 µg/mL in experiment [18]. Also, the MIC is > 64 µg/mL in experiment [19] and 4 µg/mL (≈ 6.94 µM) in [20].
`Cc1nn(-c2ccccc2)c(Oc2cccc(C(F)(F)F)c2)c1/C=C1\SC(=S)N([C@@H](Cc2ccccc2)C(=O)O)C1=O`: the Ratio is listed as 4 in [9], 4 in [10], 2 in experiment [11] and 2 in experiment [12]. For the same compound, the MIC was 8 µg/mL (≈ 13.1 µM) in experiment [13]; 4 µg/mL (≈ 6.56 µM) in [14]; 4 µg/mL (≈ 6.56 µM) in experiment [15]; 4 µg/mL (≈ 6.56 µM) in experiment [16]; > 64 µg/mL in experiment [17]; > 64 µg/mL in experiment [18]. The MIC in [19] was > 64 µg/mL; in experiment [20], 4 µg/mL (≈ 6.56 µM).
Regarding `Cc1nn(-c2ccccc2)c(Oc2ccc(Br)cc2)c1/C=C1\SC(=S)N([C@@H](Cc2ccccc2)C(=O)O)C1=O`, the Ratio is listed as 4 in experiment [9], 4 in experiment [10], 2 in experiment [11] and 2 in [12]. For the same compound, the MIC in experiment [13] is 2 µg/mL (≈ 3.22 µM); in [14], 2 µg/mL (≈ 3.22 µM); in [15], 2 µg/mL (≈ 3.22 µM); in experiment [16], 2 µg/mL (≈ 3.22 µM); in [17], > 64 µg/mL; in experiment [18], > 64 µg/mL. Further, the minimum inhibitory concentration (MIC) in experiment [19] is > 64 µg/mL; in [20], 2 µg/mL (≈ 3.22 µM).
With `Cc1nn(-c2ccccc2)c(Oc2ccccc2)c1/C=C1\SC(=S)N([C@@H](Cc2ccccc2)C(=O)O)C1=O`, the Ratio stood at 4 in experiment [9], 4 in experiment [10], 2 in [11] and 2 in experiment [12]. The MIC is 8 µg/mL (≈ 14.8 µM) in experiment [13]; 8 µg/mL (≈ 14.8 µM) in experiment [14]; 4 µg/mL (≈ 7.38 µM) in experiment [15]; 4 µg/mL (≈ 7.38 µM) in experiment [16]; > 64 µg/mL in experiment [17]; > 64 µg/mL in [18]. The MIC was > 64 µg/mL in experiment [19] and 8 µg/mL (≈ 14.8 µM) in experiment [20].
For `Cc1ccc(Oc2c(/C=C3\SC(=S)N([C@@H](Cc4ccccc4)C(=O)O)C3=O)c(C)nn2-c2ccccc2)cc1`, the Ratio in experiment [9] is 4; in [10], 4; in experiment [11], 2; in experiment [12], 2. Besides, the minimum inhibitory concentration (MIC) was 4 µg/mL (≈ 7.2 µM) in [13]; 4 µg/mL (≈ 7.2 µM) in experiment [14]; 8 µg/mL (≈ 14.4 µM) in [15]; 4 µg/mL (≈ 7.2 µM) in experiment [16]; > 64 µg/mL in [17]; > 64 µg/mL in experiment [18]. Moreover, the MIC in experiment [19] was > 64 µg/mL; in [20], 4 µg/mL (≈ 7.2 µM).
`Cc1nn(-c2ccccc2)c(Oc2ccc(Cl)cc2)c1/C=C1\SC(=S)N([C@@H](Cc2ccccc2)C(=O)O)C1=O`: the Ratio in experiment [9] worked out at 4; in experiment [10], 4; in experiment [11] it was 2; in experiment [12] it was 2. The MIC was 4 µg/mL (≈ 6.94 µM) in experiment [13]; 4 µg/mL (≈ 6.94 µM) in [14]; 4 µg/mL (≈ 6.94 µM) in [15]; 2 µg/mL (≈ 3.47 µM) in experiment [16]; > 64 µg/mL in experiment [17]; > 64 µg/mL in experiment [18]. In addition, the minimal inhibitory concentration (MIC) is > 64 µg/mL in [19] and 4 µg/mL (≈ 6.94 µM) in [20].
Regarding `Cc1ccccc1Oc1c(/C=C2\SC(=S)N([C@@H](Cc3ccccc3)C(=O)O)C2=O)c(C)nn1-c1ccccc1`, the Ratio in experiment [9] came to 4; in experiment [10], 4; in experiment [11], 2; in experiment [12] it was 2. In addition, the MIC in experiment [13] was 8 µg/mL (≈ 14.4 µM); in experiment [14] it was 8 µg/mL (≈ 14.4 µM); in experiment [15], 8 µg/mL (≈ 14.4 µM); in experiment [16], 4 µg/mL (≈ 7.2 µM); in experiment [17], > 64 µg/mL; in experiment [18], > 64 µg/mL. Also, the MIC in experiment [19] is > 64 µg/mL; in experiment [20], 4 µg/mL (≈ 7.2 µM).

The values are drawn from ChEMBL document CHEMBL2203015, “Synthesis and biological evaluation of 5-aryloxypyrazole derivatives bearing a rhodanine-3-aromatic acid as potential antimicrobial agents” (Bioorg Med Chem Lett, 2012).
